# Measured values reported in paper PMC10958125 (Clinical and Translational Medicine, 2024).
# Read-outs that look alike come from different tables or passages of the source.
# What was measured:
# [1] = human, in vivo
# [2] = system: metastatic prostate cancer patients; parameters: method as in PMID 15470213; details: TAX327 trial, cited from earlier work
# [3] = system: metastatic prostate cancer patients; details: cited from earlier work
# [4] = system: metastatic prostate cancer patients; parameters: method as in PMID 28753384; details: FIRSTANA trial, cited from earlier work
# clinical = details: human, in vivo, iv, 75 mg/m2
# [5] = system: metastatic prostate cancer patients
# [6] = system: Vascular endothelial growth factor A (VEGF‐A); assay: Plasma VEGF-A, sandwich ELISA; type: in vivo, human
# Experimental: (§1) Vascular endothelial growth factor A (VEGF‐A) was measured on Ethylenediaminetetraacetic acid plasma from subjects 1−12 of the dose escalation cohort, with a commercial sandwich ELISA kit (R&D Systems). Circulating endothelial cells (CECs) were measured with an 11‐colour flow cytometry scheme using a method adopted from a previously published protocol.[36] The definition for CECs was viable cells (alive, intact nucleus) that were positive for surface CD31 and CD34, and that were negative for haematopoietic marker CD45. Additional exploratory markers were CD105 and CD146. […] Samples were collected before the scheduled docetaxel dose for that day.
# (§2) Both VEGF‐A and CEC levels were analysed using linear mixed‐effects regression models with a subject‐level random effect included to account for within‐subject correlation. Models were adjusted for the individual's baseline levels in both outcomes. All analyses and hypothesis testing were completed on the log scale and back transformed to estimate fold changes. Analysis was completed in the R environment,[37] with all tests level α = .05. The VEGF‐A levels were near‐linear over time, so time was treated as continuous, and slopes between groups were compared using Wald tests. Levels of CECs were non‐linear over time; therefore, time was treated as a fixed factor in the CEC model, with a time‐by‐dose interaction effect. Pairwise tests of differences between the CEC model‐based estimated means at each time point after zero were completed using the emmeans package.[38] As these analyses are exploratory/hypothesis generating, no multiple comparison adjustments have been made. Simple Bonferroni adjustments would lead to p‐value cutoffs of .01 (five comparisons) and .0033 (15 comparisons) for the VEGF‐A and CEC analyses, respectively.
# [7] = system: Circulating endothelial cells (CECs); assay: Circulating endothelial cells, flow cytometry; type: in vivo, human
# Experimental: as §1, §2
# [8] = system: Insulin‐like growth factor binding protein 3 (IGFBP‐3); assay: Plasma IGFBP-3, sandwich ELISA; type: in vivo, human; details: all lycopene doses, any time point
# Experimental: Insulin‐like growth factor binding protein 3 (IGFBP‐3) levels were measured in duplicate by sandwich ELISA assays using kits from eBioscience in subjects 1–12 of the dose escalation cohort.
# IGF‐1R = IGF‐1R (Homo sapiens, UniProt P08069); assay: Ligand-dependent phosphorylation of IGF-1R(Y1131) in PBMCs stimulated ex vivo with rhIGF-1; details: patients
# Text: Briefly, ligand‐dependent phosphorylation of the IGF‐1R was estimated using an ex vivo assay that utilised peripheral blood mononuclear cells (PBMCs). […] The cells were then lysed, and the quantity of phosphoIGF‐1R(Y1131) was estimated by an ELISA assay (Cell Signalling Technologies). Ligand‐dependent phosphorylation was defined as the ratio of pIGF‐1R(Y1131) in ligand‐stimulated PBMCs to the same parameter for unstimulated PBMCs. […] Thus, the changes in the level of ligand‐dependent phosphorylation over time were analysed by both parametric and non‐parametric methods.
# Measurement of IGF-1R (Y1131) phosphorylation in PBMNCs after ex vivo ligand treatment. […] The primary analyte was phosphorylation of the IGF-1R on Y1131, measured by ELISA on lysates of PBMCs treated (or not) with recombinant human IGF-1.
# Whole blood (10mL) is collected into an ACD (acid citrate-dextrose) Vacutainer®. Peripheral blood mononuclear cells are collected by density gradient centrifugation using LSM Lymphoprep® and an Accuspin® 50mL tube (Sigma). The mononuclear cells are collected, washed x 2 with serum-free RPMI1640 medium, then resuspended in 1mL of RPMI 1640 medium + 0.1% BSA. Cells are then aliquoted into 1mL microcentrifuge tubes, 0.5mL of cells per tube per condition.
# Cells are incubated for 1-2hr at 37C, then rhIGF-1 (Peprotech) is added to 50-500ng/mL final concentration. Incubation continues for 15min at 37C.
# Cells are then pelleted and washed with 1mL of cold RPMI 1640 medium (no protein).
# The cell pellet is lysed with 120mcL of Cell Signalling® ELISA buffer containing phosphatase inhibitors and protease inhibitors. The lysate can be stored at -80C or assayed immediately.
# For total protein measurement follow the BCA method (BioRad).
# For IGF-1R(Y1131) ELISA (Cell Signalling® #7302) proceed per kit instructions. […]
# The standard will be used as a series of 2-fold dilutions, being diluted with assay buffer from the ELISA kit. […] Results will be expressed as X units of pIGF-1R protein per amount of protein in the lysate. The protein is measured by the BCA method, as mcg/mL.
# [9] = system: metastatic prostate cancer patients; type: in vivo; details: lycopene alone for 2 weeks from day 1, dose escalation cohort
# [10] = Plasma lycopene levels (HPLC); type: in vivo, human
# IGF‐1R, sequence (P08069 31-1367): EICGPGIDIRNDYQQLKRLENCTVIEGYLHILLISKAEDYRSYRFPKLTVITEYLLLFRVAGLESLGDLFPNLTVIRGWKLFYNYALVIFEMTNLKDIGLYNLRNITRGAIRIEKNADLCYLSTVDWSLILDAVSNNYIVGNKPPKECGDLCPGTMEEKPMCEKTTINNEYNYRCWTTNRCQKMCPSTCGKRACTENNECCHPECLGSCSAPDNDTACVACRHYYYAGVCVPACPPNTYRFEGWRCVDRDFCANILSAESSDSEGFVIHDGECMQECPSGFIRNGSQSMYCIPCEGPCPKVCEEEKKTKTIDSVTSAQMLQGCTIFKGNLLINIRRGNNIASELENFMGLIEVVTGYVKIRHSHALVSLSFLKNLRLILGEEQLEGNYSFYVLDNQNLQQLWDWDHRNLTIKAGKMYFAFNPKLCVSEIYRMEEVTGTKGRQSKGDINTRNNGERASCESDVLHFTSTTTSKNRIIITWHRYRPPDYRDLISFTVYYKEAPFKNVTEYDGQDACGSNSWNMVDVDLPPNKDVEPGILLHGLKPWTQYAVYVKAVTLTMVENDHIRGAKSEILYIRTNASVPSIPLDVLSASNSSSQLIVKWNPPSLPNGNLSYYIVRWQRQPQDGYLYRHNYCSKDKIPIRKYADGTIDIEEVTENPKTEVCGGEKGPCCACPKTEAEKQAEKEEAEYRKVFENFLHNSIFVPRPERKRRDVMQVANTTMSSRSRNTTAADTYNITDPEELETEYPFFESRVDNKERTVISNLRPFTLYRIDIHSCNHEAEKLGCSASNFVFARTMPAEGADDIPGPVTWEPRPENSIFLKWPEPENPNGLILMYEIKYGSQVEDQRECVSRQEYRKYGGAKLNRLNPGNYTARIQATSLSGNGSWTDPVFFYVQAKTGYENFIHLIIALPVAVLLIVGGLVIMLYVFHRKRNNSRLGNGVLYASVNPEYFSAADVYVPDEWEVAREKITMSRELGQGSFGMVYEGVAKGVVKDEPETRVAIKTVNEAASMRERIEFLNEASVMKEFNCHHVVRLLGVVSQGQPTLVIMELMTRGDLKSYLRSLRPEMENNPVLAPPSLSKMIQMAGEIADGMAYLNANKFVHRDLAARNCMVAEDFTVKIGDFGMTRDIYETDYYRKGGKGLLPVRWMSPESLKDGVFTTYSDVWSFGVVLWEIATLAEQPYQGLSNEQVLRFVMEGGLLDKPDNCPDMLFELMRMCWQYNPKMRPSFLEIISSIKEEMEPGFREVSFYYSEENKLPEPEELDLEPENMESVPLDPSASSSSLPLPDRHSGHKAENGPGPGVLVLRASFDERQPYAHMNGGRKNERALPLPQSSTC
smiles,measurement,setting,value
CC(=O)O[C@@]12CO[C@@H]1C[C@H](O)[C@@]1(C)C(=O)[C@H](O)C3=C(C)[C@@H](OC(=O)[C@H](O)[C@@H](NC(=O)OC(C)(C)C)c4ccccc4)C[C@@](O)([C@@H](OC(=O)c4ccccc4)[C@H]21)C3(C)C [docetaxel],"Plasma docetaxel C max, geometric mean",[1],2810 ng/mL
same,"Plasma docetaxel AUClast, geometric mean","[1]; iv, 75 mg/m2",2810 ng·h/mL
same,"Alopecia, % any",[2]; any grade,65.1%
same,"Anaemia, % any",[2]; any grade,66.5%
same,"Anorexia, % any",[2]; any grade,16.6%
same,"Arthralgia, % any",[2]; any grade,8.1%
same,"Cough, % any",[2]; any grade,12.3%
same,"Diarrhoea, % any",[2]; any grade,31.6%
same,"Dysgeusia, % any",[2]; any grade,18.4%
same,"Dyspnoea, % any",[2]; any grade,15.1%
same,"Fatigue, % any",[2]; any grade,53.3%
same,"Febrile neutropenia, % any",[2]; any grade,2.7%
same,"Infection, % any",[2]; any grade,32.2%
same,"Nail changes, % any",[2]; any grade,29.5%
same,"Nausea, % any",[2]; any grade,41%
same,"Neutropenia, % any",[2]; any grade,40.9%
same,"Peripheral oedema, % any",[2]; any grade,18.1%
same,"Rash/desquamation, % any",[2]; any grade,6%
same,"Sensory/motor neuropathy, % any",[2]; any grade,30.4%
same,"Stomatitis/pharyngitis, % any",[2]; any grade,19.6%
same,"Tearing, % any",[2]; any grade,9.9%
same,"Thrombocytopenia, % any",[2]; any grade,3.4%
same,"Vomiting, % any",[2]; any grade,16.9%
same,"Anaemia, % grade 3+",[2],4.9%
same,"Anorexia, % grade 3+",[2],1.2%
same,"Arthralgia, % grade 3+",[2],.6%
same,"Cough, % grade 3+",[2],0%
same,"Diarrhoea, % grade 3+",[2],2.1%
same,"Dysgeusia, % grade 3+",[2],0%
same,"Dyspnoea, % grade 3+",[2],2.7%
same,"Fatigue, % grade 3+",[2],4.5%
same,"Febrile neutropenia, % grade 3+",[2],2.7%
same,"Infection, % grade 3+",[2],5.7%
same,"Nausea, % grade 3+",[2],2.7%
same,"Neutropenia, % grade 3+",[2],32%
same,"Peripheral oedema, % grade 3+",[2],.3%
same,"Sensory/motor neuropathy, % grade 3+",[2],1.8%
same,"Stomatitis/pharyngitis, % grade 3+",[2],.9%
same,"Tearing, % grade 3+",[2],.6%
same,"Thrombocytopenia, % grade 3+",[2],.6%
same,"Vomiting, % grade 3+",[2],1.5%
same,Increased overall survival,[3]; mCRPC,2.4 months
same,Increased overall survival,[3]; mCSPC,16.8 months
same,"Alopecia, % any",[4]; any grade,39%
same,"Anaemia, % any",[4]; any grade,99.5%
same,"Anorexia, % any",[4]; any grade,17.1%
same,"Arthralgia, % any",[4]; any grade,8%
same,"Constipation, % any",[4]; any grade,18.1%
same,"Cough, % any",[4]; any grade,9.8%
same,"Diarrhoea, % any",[4]; any grade,37%
same,"Dysgeusia, % any",[4]; any grade,18.1%
same,"Dyspnoea, % any",[4]; any grade,9.6%
same,"Fatigue, % any",[4]; any grade,28.9%
same,"Febrile neutropenia, % any",[4]; any grade,8.3%
same,"Infection, % any",[4]; any grade,7.2%
same,"Nail changes, % any",[4]; any grade,9%
same,"Nausea, % any",[4]; any grade,22.7%
same,"Neutropenia, % any",[4]; any grade,89%
same,"Pain in extremity, % any",[4]; any grade,9.8%
same,"Peripheral oedema, % any",[4]; any grade,20.4%
same,"Rash/desquamation, % any",[4]; any grade,5.9%
same,"Sensory/motor neuropathy, % any",[4]; any grade,25.1%
same,"Stomatitis/pharyngitis, % any",[4]; any grade,13.7%
same,"Tearing, % any",[4]; any grade,9.6%
same,"Thrombocytopenia, % any",[4]; any grade,32.6%
same,"Vomiting, % any",[4]; any grade,11.6%
same,"Anaemia, % grade 3+",[4],5.5%
same,"Anorexia, % grade 3+",[4],.3%
same,"Arthralgia, % grade 3+",[4],1%
same,"Constipation, % grade 3+",[4],1%
same,"Cough, % grade 3+",[4],0%
same,"Diarrhoea, % grade 3+",[4],2.3%
same,"Dysgeusia, % grade 3+",[4],0%
same,"Dyspnoea, % grade 3+",[4],.3%
same,"Fatigue, % grade 3+",[4],.3%
same,"Febrile neutropenia, % grade 3+",[4],8.3%
same,"Infection, % grade 3+",[4],4.1%
same,"Nausea, % grade 3+",[4],.8%
same,"Neutropenia, % grade 3+",[4],78.9%
same,"Pain in extremity, % grade 3+",[4],1%
same,"Peripheral oedema, % grade 3+",[4],1.6%
same,"Sensory/motor neuropathy, % grade 3+",[4],2.1%
same,"Stomatitis/pharyngitis, % grade 3+",[4],.8%
same,"Tearing, % grade 3+",[4],0%
same,"Thrombocytopenia, % grade 3+",[4],1.6%
same,"Vomiting, % grade 3+",[4],.8%
same,AUC(0-inf),clinical,3020 ng·h/mL
CC(C)=CCC/C(C)=C/C=C/C(C)=C/C=C/C(C)=C/C=C/C=C(C)/C=C/C=C(C)/C=C/C=C(\C)CCC=C(C)C [lycopene],Maximum tolerated dose (MTD) of synthetic lycopene,[5]; in combination with docetaxel 75 mg/m^2 and ADT,150 mg/day
same,Dose-limiting toxicity,[5]; in vivo,No DLT
same,"Probability of toxicity, dose level 1","[5]; male, human, in vivo",0
same,"Probability of toxicity, dose level 2","[5]; male, human, in vivo",.009
same,"Probability of toxicity, dose level 3","[5]; male, human, in vivo",.106
same,Change of plasma VEGF-A level over time,[6]; lycopene 30 mg/day + docetaxel/ADT,tended to decrease
same,Change of plasma VEGF-A level over time,[6]; lycopene 90 mg/day + docetaxel/ADT,little change
same,Change of plasma VEGF-A level over time,[6]; lycopene 150 mg/day + docetaxel/ADT,to increase
same,Change of CEC number vs pre-treatment,"[7]; lycopene 30 mg/day + docetaxel/ADT, all time points",decreased
same,Change of CEC number vs pre-treatment,[7]; lycopene 90 mg daily + docetaxel/ADT,increased CEC levels at all time points
same,Change of CEC number vs pre-treatment,[7]; lycopene 150 mg daily + docetaxel/ADT,significant increase in CECs only on day 57
same,Change of plasma IGFBP-3 from pretreatment level,[8],no statistically significant differences
same,Change of ligand-dependent phosphorylation of IGF1-R(Y1131),"IGF‐1R; 150 mg lycopene daily, day 78, p = .048",borderline decrease
same,Change of ligand-dependent phosphorylation of IGF1-R(Y1131),"IGF‐1R; 150 mg lycopene daily, day 99, p = .027",significant decrease
same,Change of ligand-dependent phosphorylation of IGF1-R(Y1131),"IGF‐1R; 30 or 90 mg/day lycopene, day 15 to 99",did not show a consistent change
same,Adverse events during lycopene alone lead-in,[9],No participant reported any adverse event
same,Increase of plasma lycopene concentration from baseline,[10]; 30 mg daily synthetic lycopene with docetaxel,approximately 1.6 fold
same,Peak concentration of lycopene in plasma at 150 mg/day compared to 30 and 90 mg/day,[10]; Figure 2B,did not further increase the peak concentration
same,Mean lycopene concentration in plasma,[10]; after 99 days of treatment,.82 ± .49 µmol/L
same,Mean lycopene concentration in plasma,[10]; baseline,.48 ± .37 µmol/L
same,Increase of plasma lycopene during treatment,[10]; baseline to 99 days,93.4%
